Experimental data taken from patent US20250195474A1, “Piezo Inhibition for Wound Healing” (priority 2022, published 2025).
No end group written: not given here.

Tests used:
[1] = test system: human foreskin xenograft wounds; assay: CODEX analysis of human xenograft wounds at POD 14; type: in vivo
Text: (§1) To spatially phenotype the pig specimens, we used Co-Detection by Indexing (CODEX), a novel assay in which markers are labeled with oligonucleotide-conjugated antibodies and iteratively imaged between cyclic additions and washouts of dye-labeled oligonucleotides. A custom CODEX panel was designed to assess wound cells within the tissue see Table 1). In brief, primary antibodies were individually barcoded and validated using the commercial supplier's protocols. OCT for mouse or paraffin blocks for human xenograft (n=3 per group) were sectioned at 8 μm thickness onto coverslips for CODEX antibody staining. Antigens were retrieved by standard citrate-EDTA processing prior to addition of CODEX antibodies. Using a CODEX-integrated Keyence BZ-X instrument (Akoya Biosciences) image acquisition was then performed. Using software from Akoya Biosciences the raw images were process, with cell segmentation, and rendering.
(§2) The CODEX was visualized using Akoya Biosciences Multiplex Analysis Viewer (MAV) in ImageJ. The resulting .fcs files were then concatenated in FlowJo and imported into the Monocle3 and STvEA R packages for further analysis. After debris removal, the processed UMAP manifold was analyzed through Monocle3 with a post-manifold threshold of >10,000 cells per cluster. Analysis of the protein staining patterns was then used to assign cell types. The cell interactions were then inferred using STvEA for cell types at >2.5% of total abundance at k=20 nearest neighbors to quantify cell spatial interactions, and differential interaction maps were generated using graph scores.
While scRNA-seq of human xenografts investigates human fibroblast subpopulations at a transcriptomic level, we further utilized CODEX to analyze spatially defined protein expression and cellular organization (FIG. 13A; markers shown in Table 1 right column). Specifically, we compared the spatial microenvironment of PBS, P1i, and unwounded skin at POD 14. […]

[2] = test system: existing scars; assay: CODEX spatial protein analysis of treated existing scars; type: in vivo, mouse
Text: as §1, §2
To phenotype the spatial environment in the context of rescuing existing scars, CODEX was further employed to spatially define protein expression, cell populations, and associated cell-cell interactions (FIG. 10A; markers shown in Table 1 middle column, 39A). […]

[3] = test system: existing scars; assay: Treatment of existing scars during remodeling (scar rescue); type: in vivo, mouse
Text: While wound re-epithelialization is complete relatively quickly (around 2 weeks), wounds continue to heal beneath the surface for months to years in a process known as scar remodeling. (Foster et al., 2021; Gurtner et al., 2008) Remodeling is the longest and least well understood phase of wound repair but is likely critical to ultimate outcomes. We postulated that ADFs could continue to play a role in scarring during the remodeling process; if this were the case, we wondered whether ADF activity could be targeted during wound remodeling, via P1i in existing, actively remodeling scars, to ultimately reduce scarring and drive regeneration (FIG. 6A,C). Thus, we administered P1i to existing scars at POD 30 (early remodeling period), POD 75 (mid-remodeling), and POD 120 (late remodeling), then harvested tissue one month later at POD 60, POD 105, and […] respectively (FIG. 6A, C).

[4] = test system: wounds; assay: CODEX spatial protein analysis of POD 14 wounds; type: in vivo, mouse; settings: POD 14, vs PBS
Text: as §1, §2

[5] = target: T1, TRPC6 (Homo sapiens, UniProt Q9Y210); settings: cited from earlier work
T1 sequence (Q9Y210 1-931): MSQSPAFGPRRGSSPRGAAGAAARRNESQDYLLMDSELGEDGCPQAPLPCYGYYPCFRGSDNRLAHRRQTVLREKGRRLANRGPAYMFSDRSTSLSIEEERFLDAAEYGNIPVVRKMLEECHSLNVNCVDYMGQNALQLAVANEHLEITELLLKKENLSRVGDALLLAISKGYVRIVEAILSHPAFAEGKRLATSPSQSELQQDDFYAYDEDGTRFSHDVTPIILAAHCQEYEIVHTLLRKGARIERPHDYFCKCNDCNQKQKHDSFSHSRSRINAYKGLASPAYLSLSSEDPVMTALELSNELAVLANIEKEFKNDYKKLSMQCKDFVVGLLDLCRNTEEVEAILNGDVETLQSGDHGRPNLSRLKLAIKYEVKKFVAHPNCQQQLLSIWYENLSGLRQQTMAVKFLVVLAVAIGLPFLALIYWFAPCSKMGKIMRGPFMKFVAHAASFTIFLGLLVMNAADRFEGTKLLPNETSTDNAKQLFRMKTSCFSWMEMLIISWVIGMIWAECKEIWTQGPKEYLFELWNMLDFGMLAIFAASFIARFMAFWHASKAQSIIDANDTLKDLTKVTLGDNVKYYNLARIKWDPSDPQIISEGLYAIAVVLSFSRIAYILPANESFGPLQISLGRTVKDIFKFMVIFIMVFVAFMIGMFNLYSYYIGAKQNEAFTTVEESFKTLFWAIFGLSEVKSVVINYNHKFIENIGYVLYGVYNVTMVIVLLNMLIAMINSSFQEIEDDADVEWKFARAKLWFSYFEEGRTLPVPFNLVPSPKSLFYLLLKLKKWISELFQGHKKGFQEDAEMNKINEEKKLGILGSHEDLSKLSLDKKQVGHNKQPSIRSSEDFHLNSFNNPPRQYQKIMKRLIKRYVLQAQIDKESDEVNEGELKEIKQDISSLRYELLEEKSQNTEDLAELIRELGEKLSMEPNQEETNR

[6] = treated at POD 30, 75 or 120, harvested one month later

GsMTx4 (GCLEFWWKCNPNDDKCCRPKLKCSKLFKLCNFSF; ends and bridges not checked; cysteine pairing not given here; UniProt Q7YT39 47-80, looked up) [P1i]
interactions between fibroblasts and adipocytes ([1]; POD 14): PBS-treated wounds showed broadly enriched interactions between fibroblasts and adipocytes compared to P1i-treated wounds
interactions of adipocytes 4 ([1]; POD 14): strong crosstalk between adipocytes 4 and epithelial cells
relative proportions of CODEX defined adipocyte clusters ([1]; POD 14, vs PBS, p<0.05): fewer of the adipocyte 1 subtype and more of the adipocyte 4 subtype
adipocyte cluster 2 interactions with epithelial cells ([2]; POD 60, 105 and 150): interacted more strongly with epithelial cells
expression of mechanical markers ([2]; POD 60, 105 and 150): PBS treated wounds showed higher expression of mechanical markers
interactions mediated by adipocyte clusters ([2]; vs PBS treated scars): enriched interactions mediated by adipocyte cluster 2
organization of hair follicles ([3]; POD 105 and 120 vs POD 60): less organized than those at POD 60
ADFs in late treated wounds ([3]; late treatment of existing scars): significantly reduced
ECM architecture in existing scars [3, 6]: full recovery of unwounded-like ECM architecture
hair follicles in existing scars [3, 6]: return of hair follicles
wound regeneration in existing scars [3, 6]: near-complete wound regeneration
Lef1 (new hair follicle formation) [4]: highly expressed
adipocyte-fibroblast spatial interactions (CODEX) [4]: reduced adipocyte-fibroblast interactions
individual adipocyte-fibroblast subpopulation interactions (CODEX) [4]: enriching the interactions of adipocyte cluster 2 with fibroblast clusters 2 and 4
block of TRPC6 [5]: blocks
